The results in this text go back to paper PMC6735293, “Design, synthesis, and biological evaluation of novel androst-17β-amide structurally related compounds as dual 5α-reductase inhibitors and androgen receptor antagonists” (Journal of Enzyme Inhibition and Medicinal Chemistry, 2019).

The term melting point denotes the temperature of the solid-liquid transition. The IC50 is the midpoint of a concentration-inhibition curve.

Structures are written as SMILES. Read-outs that look alike come from different tables or passages of the source.

Series [1] deals with T1, 5α-reductase type 2 isozyme (Rattus norvegicus, UniProt P31214).
T1 sequence (P31214 1-254): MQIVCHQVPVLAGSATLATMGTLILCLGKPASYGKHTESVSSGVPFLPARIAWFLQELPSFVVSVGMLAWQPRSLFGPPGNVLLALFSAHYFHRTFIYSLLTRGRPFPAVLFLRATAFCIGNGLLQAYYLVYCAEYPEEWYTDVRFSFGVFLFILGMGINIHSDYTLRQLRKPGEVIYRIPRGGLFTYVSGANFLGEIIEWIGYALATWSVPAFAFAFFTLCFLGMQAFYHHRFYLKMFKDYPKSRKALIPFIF
Nature of the series: Enzyme inhibition test, 5α-reductase type 2 (pH 5.5). It is filed as biochemical. Here is the method:
(§1) Female rats were sacrificed and liver were taken within 5 min. All the following steps were performed at 0–4 °C. 1 g liver was cut into 3 mm pieces and added to 3 times volume of PBS. The tissue was homogenized and centrifuged at 10,000 g for 30 min. The supernatant was collected and centrifuged repeatedly at 100,000 for 1 h. The pellet obtained was resuspended in phosphate buffer (contained 30% glycerol, 1:3 v/v) and stored at −70 °C. The incubation mixture contained 50 µL enzyme solution, 6 µL NADPH (80 µM), 6 µL T (20 µM), and 108 µL buffer with or without test compound. The negative control contained 50 µL enzyme solution, 6 µL NADPH (80 µM) and 114 µL buffer. The incubation was carried out for 30 min at 37 °C. The fluorescence decay rate was tested in 10 min at 37 °C.
(§2) The inhibitory activities of the synthesized compounds were then assessed towards the 5α-reductase 1 and 2 isozymes, respectively. Finasteride was used as positive control.

In series [2] the target is T2, 5α-reductase type 1 isozyme (Rattus norvegicus, UniProt P24008).
T2 sequence (P24008 1-259): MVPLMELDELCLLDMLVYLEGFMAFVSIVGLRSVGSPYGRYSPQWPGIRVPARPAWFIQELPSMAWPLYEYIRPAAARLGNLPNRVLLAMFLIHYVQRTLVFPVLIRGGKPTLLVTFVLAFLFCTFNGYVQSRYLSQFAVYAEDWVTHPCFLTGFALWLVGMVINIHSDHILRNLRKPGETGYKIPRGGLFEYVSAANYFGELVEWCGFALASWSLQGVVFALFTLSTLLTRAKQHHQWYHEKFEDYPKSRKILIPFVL
Nature of the series: Enzyme inhibition test, 5α-reductase type 1 (pH 6.6). It is filed as biochemical. As to the method:
as §1, §2

The subject of series [3] is 22RV1 cells. Kind of series: MTT anti-proliferation assay, T-stimulated 22RV1. The note with it: for Effect on cell viability of T-treated 22RV1 cells: different concentrations of compound with 0.1 μM T, Figure 3. The format is cell-based, Human. As to the method: Human prostate carcinoma 22RV1 (CRL-2505, ATCC) and PC-3 (CRL-1435, ATCC) cells were cultured in RPMI-1640 medium (Invitrogen), supplemented with 10% (v/v) foetal calf serum (FCS) (Invitrogen), 1% (v/v), penicillin and streptomycin (Invitrogen) at 37 °C with 5% CO2 in a humidified atmosphere. Fresh medium was given every second day and on the day before the experiments were done. Cells were passaged at preconfluent densities, using a solution containing 0.05% trypsin.
The anti-cancer activity in vitro was measured using the MTT assay. Exponentially growing cells were harvested and plated in 96-well plates at a concentration of 1 × 10^4 cells/well. After 24 h incubation at 37 °C under a humidified 5% CO2 to allow cell attachment, the cells in the wells were respectively treated with target compounds at various concentrations for 48 h. […] A solution of 3–(4,5-dimethylthizao1-2-y1)-2,5-diphenyltetrazolium bromide (MTT), was prepared at 5 mg/ml in phosphate buffered saline (PBS: 1.5 mM KH2PO4, 6.5 mM Na2HPO4, 137 mM NaCl, 2.7 mM KCl; pH 7.4). Of this solution 20 µl was added to each well. After incubation for 4 h at 37 °C in a humidified incubator with 5% CO2, the medium/MTT mixtures were removed, and the formazan crystals formed by the mitochondrial dehydrogenase activity of vital cells were dissolved in 100 µl of DMSO per well. The absorbance of the wells was read with a microplate reader at 570 nm. Effects of the drug cell viability were calculated using cell treated with DMSO as control.
The anti-proliferative activities were firstly evaluated against 22RV1 stimulated by 0.1 µM T or not. […] Although androst[3,2-c]pyrazoleis common in anabolic steroid, luckily these derivatives shown no androgen agonistic activity. The phenethylamino substituted compounds (7d, 8d, and 9d) and piperidine substituted compounds (7b, 8b, and 9b) were more efficient than others. […] As presented in Figure 3, 0.1 µm of T was selectedas the most adequate to induce proliferation of 22RV1 cells. […] Compound 9d caused a much more significant decrease in cell viability for all concentrations than flutamide. […]

[4] abbreviates: 1 μM compound, pH 5.5, rat liver enzyme preparation, read-out: Type 2 (pH 5.5) Inh% (1μM).
The mark [5] stands for this setting: 1 μM compound, pH 6.6, rat liver enzyme preparation, read-out: Type 1 (pH 6.6) Inh% (1 μM).
Where [6] appears, read: pH 5.5, read-out: Type 2 (pH 5.5) Inh% (1μM).
Setting [7] is: pH 6.6, read-out: Type 1 (pH 6.6) Inh% (1 μM).
[8] abbreviates: pH 6.6, rat liver enzyme preparation, read-out: Type 1 (pH 6.6) IC50.

Turning to `CC(C)CNC(=O)[C@H]1CCC2C3CCC4=CC(=O)/C(=C\O)C[C@]4(C)C3CC[C@@]21C` (stereo partly drawn) [Compound 7a, 2-hydroxymethylene-17β-(N-isobutyl-carboxamide)-androst-4-ene-3-one], the melting point is 152 to 158 °C. The inhibition at 1 µM in series [1] (setting [4]) was determined as 24.2 ± 1.13%. Moreover, the inhibition at 1 µM in series [2] (setting [5]) is 25 ± 9.68%.
Taken in the same sequence, the figures for `C[C@]12CC[C@H]3[C@@H](CCC4=CC(=O)C(=CO)C[C@@]43C)[C@@H]1CC[C@@H]2C(=O)N1CCCCC1` [Compound 7b, 2-hydroxymethylene-17β-(piperidine-1-carbonyl)-androst-4-ene-3-one] were 105 to 110 °C, 49.9 ± 3.08% and 52.2 ± 12.3%.
Taken in the same sequence, the figures for `CCN(CC)C(=O)[C@H]1CCC2C3CCC4=CC(=O)/C(=C\O)C[C@]4(C)C3CC[C@@]21C` (stereo partly drawn) [Compound 7c, 2-hydroxymethylene-17β-(N,N-diethy-carboxamide)-androst-4-ene-3-one] were 153 to 159 °C, 24.5 ± 8.47% and 27.9 ± 4.01%.
Consider `COc1ccc(CCNC(=O)[C@H]2CCC3C4CCC5=CC(=O)/C(=C\O)C[C@]5(C)C4CC[C@@]32C)cc1OC` (stereo partly drawn) [Compound 7d, 2-hydroxymethylene-17β-(N-(3,4-dimethoxyphenethyl)-carboxamide)-androst-4-ene-3-one], for which the melting point lay in the range of 121 to 129 °C. Moreover, in series [1] (setting [6]), the inhibition at 1 µM is 69 ± 9.3%. In series [2], the IC50 was found to be 580 ± 60 nM. The inhibition at 1 µM in series [2] (setting [7]) turned out to be 66.4 ± 4.37%.
Take `C[C@]12CC[C@H]3[C@@H](CCC4=CC(=O)C(=CO)C[C@@]43C)[C@@H]1CC[C@@H]2C(=O)NC1CC1` [Compound 7e, 2-hydroxymethylene-17β-(N-cyclopropylamino-carbonyl)-androst-4-ene-3-one]: the melting point is 125 to 130 °C. Also, in series [1] (setting [4]), the inhibition at 1 µM worked out at 45.8 ± 9.86%. Moreover, in series [2] (setting [5]), the inhibition at 1 µM amounted to 54.7 ± 5.94%.
Taken in the same sequence, the figures for `C=C1C[C@@]2(C)C(=CC1=O)CCC1C2CC[C@@]2(C)C1CC[C@@H]2C(=O)NCC(C)C` (stereo partly drawn) [Compound 8a, 2-methylene-17β-(N-isobutyl-carboxamide)-androst-4-ene-3-one] were 168 to 175 °C, 19.9 ± 12.9% and 31.1 ± 6.49%.
For `C=C1C[C@@]2(C)C(=CC1=O)CC[C@H]1[C@@H]3CC[C@H](C(=O)N4CCCCC4)[C@@]3(C)CC[C@@H]12` [Compound 8b, 2-methylene-17β-(piperidine-1-carbonyl)-androst-4-ene-3-one], the inhibition at 1 µM in series [1] (setting [4]) stood at 21.2 ± 1.31%; in series [2] (setting [5]) it was 35.8 ± 9.58%.
Compound `C=C1C[C@@]2(C)C(=CC1=O)CCC1C2CC[C@@]2(C)C1CC[C@@H]2C(=O)N(CC)CC` (stereo partly drawn) [Compound 8c, 2-methylene-17β-(N,N-diethy-carboxamide)-androst-4-ene-3-one] returned a melting point of 98 to 105 °C. In addition, the inhibition at 1 µM in series [1] (setting [4]) stood at 18.3 ± 4.61%. Further, the inhibition at 1 µM in series [2] (setting [5]) turned out to be 25.8 ± 4.22%.
In turn, `C=C1C[C@@]2(C)C(=CC1=O)CCC1C2CC[C@@]2(C)C1CC[C@@H]2C(=O)NCCc1ccc(OC)c(OC)c1` (stereo partly drawn) [Compound 8d, 2-methylene-17β-(N-(3,4-dimethoxyphenethyl)-carboxamide)-androst-4-ene-3-one] registered a melting point of 74 to 78 °C. Also, the inhibition at 1 µM in series [1] (setting [4]) is 26.1 ± 10.3%. For the same compound, the inhibition at 1 µM in series [2] (setting [5]) turned out to be 24.8 ± 9.02%.
Taken in the same sequence, the figures for `C=C1C[C@@]2(C)C(=CC1=O)CC[C@H]1[C@@H]3CC[C@H](C(=O)NC4CC4)[C@@]3(C)CC[C@@H]12` [Compound 8e, 2-methylene-17β-(N-cyclopropylamino-carbonyl)-androst-4-ene-3-one] were 135 to 142 °C, 20.9 ± 10.1% and 34.1 ± 10.1%.
For `CC(C)CNC(=O)[C@H]1CCC2C3CCC4=Cc5n[nH]cc5C[C@]4(C)C3CC[C@@]21C` (stereo partly drawn) [Compound 9a, 17β-(N-isobutyl-carboxamide)-androst[3,2-c]pyrazole-4-ene], the inhibition at 1 µM in series [1] (setting [4]) was found to be 48.7 ± 3.08%; in series [2] (setting [5]), 53.1 ± 9.71%.
Turning to `C[C@]12Cc3c[nH]nc3C=C1CCC1C2CC[C@@]2(C)C1CC[C@@H]2C(=O)N1CCCCC1` (stereo partly drawn) [Compound 9b, 17β-(Piperidine-1-carbonyl)-androst[3,2-c]pyrazole-4-ene], the inhibition at 1 µM was 49.6 ± 5.75% in series [1] (setting [4]) and 59.2 ± 2.28% in series [2] (setting [5]). In addition, the IC50 in series [2] (setting [8]) came to 630 ± 140 nM.
On to `CCN(CC)C(=O)[C@H]1CCC2C3CCC4=Cc5n[nH]cc5C[C@]4(C)C3CC[C@@]21C` (stereo partly drawn) [Compound 9c, 17β-(N,N-diethy-carboxamide)-androst[3,2-c]pyrazole-4-ene], for which the melting point was 111 to 118 °C. Further, in series [1] (setting [4]), the inhibition at 1 µM worked out at 63.6 ± 12.5%. Further, in series [2] (setting [5]), the inhibition at 1 µM is 68 ± 12%. For the same compound, the half-inhibitory concentration (IC50) in series [2] (setting [8]) amounted to 520 ± 60 nM.
Take `COc1ccc(CCNC(=O)[C@H]2CCC3C4CCC5=Cc6n[nH]cc6C[C@]5(C)C4CC[C@@]32C)cc1OC` (stereo partly drawn) [Compound 9d, 17β-(N-(3,4-dimethoxyphenethyl)-carboxamide)-androst[3,2-c]pyrazole-4-ene]: the IC50 in series [3] (Homo sapiens, 22Rv1, 48 h, read-out: IC50 anti-proliferative activity against 22RV1, T-stimulated group) amounted to 8850 nM; in series [2], 90 ± 20 nM. The “Effect on cell viability of T-treated 22RV1 cells” value in series [3] is recorded as “inhibited cell proliferation in a dose-dependent manner”. Further, the inhibition at 1 µM in series [1] (setting [6]) worked out at 71.9 ± 3.4%; in series [2] (setting [7]) it was 80.1 ± 6.73%.
Regarding `C[C@]12Cc3c[nH]nc3C=C1CCC1C2CC[C@@]2(C)C1CC[C@@H]2C(=O)NC1CC1` (stereo partly drawn) [Compound 9e, 17β-(N-cyclopropylamino-carbonyl)-androst[3,2-c]pyrazole-4-ene], the inhibition at 1 µM in series [1] (setting [6]) was determined as 79.4 ± 2.47%; in series [2] (setting [7]), 70.8 ± 9.74%. For the same compound, in series [2], the IC50 turned out to be 230 ± 90 nM.
Regarding `CC(C)(C)NC(=O)[C@H]1CC[C@H]2[C@@H]3CC[C@H]4NC(=O)C=C[C@]4(C)[C@H]3CC[C@]12C` [Finasteride, finasteride, reference compound], the inhibition at 1 µM came out at 70 ± 4.12% in series [1] (setting [6]) and 73.7 ± 4.22% in series [2] (setting [5]).
For the compound `CC(C)C(=O)Nc1ccc([N+](=O)[O-])c(C(F)(F)F)c1` [flutamide, reference compound], in series [3], the “Effect on cell viability of T-treated 22RV1 cells” value was “inhibited cell proliferation in a dose-dependent manner”.
